# Experimental data taken from US9920032B2, “Heterocyclic compounds useful as pim kinase inhibitors” (Incyte Corporation, priority 2015, dated 2018).
# How the values were obtained:
# Type in all cases: biochemical
# Pim-3 = Pim-3 (Homo sapiens (Human), UniProt Q86V86); test: Pim-3 kinase assay; conditions: 1 mM ATP; read-out: PIM3 IC50
# In short: (§1)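 Biotin-BAD peptide (0.05 μM) phosphorylated with 1 mM ATP by 2.5 pM Pim-1 or 1.25 pM Pim-3 in Tris pH 7.5/MgCl2/DTT buffer, 1 h at 25° C. EDTA stop; phospho-BAD (Ser112) antibody with streptavidin donor and Protein-A acceptor beads, 1 h dark at room temperature before AlphaScreen-type bead read.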
# Pim-2 = Pim-2 (Homo sapiens (Human), UniProt Q9P1W9); test: Pim-2 kinase assay; conditions: 1 mM ATP; read-out: PIM2 IC50
# In short: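 TR-FRET assay with 1 nM enzyme, 0.05 μM fluorescein-CREBtide and 1 mM ATP in Tris pH 7.5 buffer with MgCl2, DTT, BSA and Tween-20, run 2 h at 25° C. Stopped with EDTA and Tb-labelled anti-CREB pSer133 antibody, then read after 30 min at room temperature.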
# Pim-1 = Pim-1 (Homo sapiens (Human), UniProt P11309); test: Pim-1 kinase assay; conditions: 1 mM ATP; read-out: PIM1 IC50
# In short: as §1
# Sequence of Pim-2 (Q9P1W9 whole entry): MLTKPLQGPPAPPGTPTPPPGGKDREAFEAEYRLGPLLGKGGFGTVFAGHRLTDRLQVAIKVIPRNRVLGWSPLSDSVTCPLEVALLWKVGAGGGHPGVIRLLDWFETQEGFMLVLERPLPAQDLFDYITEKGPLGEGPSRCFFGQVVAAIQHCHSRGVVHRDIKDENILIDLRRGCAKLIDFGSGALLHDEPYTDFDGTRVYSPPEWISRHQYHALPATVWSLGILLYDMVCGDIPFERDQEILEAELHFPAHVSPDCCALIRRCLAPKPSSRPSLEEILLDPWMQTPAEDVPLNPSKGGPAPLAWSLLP
# Sequence of Pim-1 (P11309 whole entry): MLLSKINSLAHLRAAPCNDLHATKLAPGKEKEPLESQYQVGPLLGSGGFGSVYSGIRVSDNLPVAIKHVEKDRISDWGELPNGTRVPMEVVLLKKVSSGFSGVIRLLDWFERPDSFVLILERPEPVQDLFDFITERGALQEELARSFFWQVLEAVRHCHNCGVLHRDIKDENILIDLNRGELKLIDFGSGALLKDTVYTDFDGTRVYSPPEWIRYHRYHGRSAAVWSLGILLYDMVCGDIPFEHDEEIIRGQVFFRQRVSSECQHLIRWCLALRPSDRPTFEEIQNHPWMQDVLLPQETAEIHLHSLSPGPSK
smiles,measurement,setting,value
"COc1ccncc1N(C)c1cnc2c(C(=O)Nc3cnccc3[C@@H]3C[C@H](C)C[C@H](N)C3)ccc(F)c2c1 [Example 150, N-(4-((1R,3S,5S)-3-Amino-5-methylcyclohexyl)pyridin-3-yl)-5-fluoro-3-((4-methoxypyridin-3-yl)(methyl)amino)quinoline-8-carboxamide]",IC50,Pim-3,≤ 10 nM
same,IC50,Pim-2,≤ 100 nM
same,IC50,Pim-1,≤ 10 nM
C[C@@H]1C[C@H](N)C[C@H](c2ccncc2NC(=O)c2ccc(F)c3cc(N(C)C4CCCOC4)cnc23)C1 (stereo partly drawn) [Example 151],IC50,Pim-3,≤ 10 nM
same,IC50,Pim-2,≤ 100 nM
same,IC50,Pim-1,≤ 10 nM
"COc1ccccc1N(C)c1cnc2c(C(=O)Nc3cnccc3[C@@H]3C[C@H](C)C[C@H](N)C3)ccc(F)c2c1 [Example 152, N-(4-((1R,3S,5S)-3-Amino-5-methylcyclohexyl)pyridin-3-yl)-5-fluoro-3-((2-methoxyphenyl)(methyl)amino)quinoline-8-carboxamide]",IC50,Pim-3,≤ 10 nM
same,IC50,Pim-2,≤ 100 nM
same,IC50,Pim-1,≤ 10 nM
C[C@@H]1C[C@H](N)C[C@H](c2ccncc2NC(=O)c2ccc(F)c3cc(N(C)c4ccc5nccn5c4)cnc23)C1 [Example 153],IC50,Pim-3,≤ 10 nM
same,IC50,Pim-2,100 to 1000 nM
same,IC50,Pim-1,≤ 10 nM
"C[C@@H]1C[C@H](N)C[C@H](c2ccncc2NC(=O)c2ccc(F)c3cc(N(C)[C@@H]4CCOC4)cnc23)C1 [Example 154, N-(4-((1R,3S,5S)-3-Amino-5-methylcyclohexyl)pyridin-3-yl)-5-fluoro-3-(methyl((R)-tetrahydrofuran-3-yl)amino)quinoline-8-carboxamide]",IC50,Pim-3,≤ 10 nM
same,IC50,Pim-2,100 to 1000 nM
same,IC50,Pim-1,≤ 10 nM
"CO[C@@H]1C[C@H](C)N(c2cnc3c(C(=O)Nc4cnccc4[C@@H]4C[C@H](C)C[C@H](N)C4)ccc(F)c3c2)C1 [Example 155, N-(4-((1R,3S,5S)-3-Amino-5-methylcyclohexyl]pyridin-3-yl}-5-fluoro-3-[(2S,4R)-4-methoxy-2-methylpyrrolidin-1-yl]quinoline-8-carboxamide]",IC50,Pim-3,≤ 10 nM
same,IC50,Pim-2,≤ 100 nM
same,IC50,Pim-1,≤ 10 nM
CO[C@@H]1C[C@@H](C)N(c2cnc3c(C(=O)Nc4cnccc4[C@@H]4C[C@H](C)C[C@H](N)C4)ccc(F)c3c2)C1 [Example 156],IC50,Pim-3,≤ 10 nM
same,IC50,Pim-2,≤ 100 nM
same,IC50,Pim-1,≤ 10 nM
"CO[C@H]1C[C@H](C)N(c2cnc3c(C(=O)Nc4cnccc4[C@@H]4C[C@H](C)C[C@H](N)C4)ccc(F)c3c2)C1 [Example 157, N-(4-((1R,3S,5S)-3-Amino-5-methylcyclohexyl)pyridin-3-yl)-5-fluoro-3-((2S,4S)-4-methoxy-2-methylpyrrolidin-1-yl)quinoline-8-carboxamide]",IC50,Pim-3,≤ 10 nM
same,IC50,Pim-2,≤ 100 nM
same,IC50,Pim-1,≤ 10 nM
"CO[C@H]1C[C@@H](C)N(c2cnc3c(C(=O)Nc4cnccc4[C@@H]4C[C@H](C)C[C@H](N)C4)ccc(F)c3c2)C1 [Example 158, N-(4-((1R,3S,5S)-3-Amino-5-methylcyclohexyl)pyridin-3-yl)-5-fluoro-3-((2R,4S)-4-methoxy-2-methylpyrrolidin-1-yl)quinoline-8-carboxamide]",IC50,Pim-3,≤ 10 nM
same,IC50,Pim-2,≤ 100 nM
same,IC50,Pim-1,≤ 10 nM
"CO[C@H]1CCN(c2cnc3c(C(=O)Nc4cnccc4[C@@H]4C[C@H](C)C[C@H](N)C4)ccc(F)c3c2)[C@H](C)C1 [Example 159, N-(4-((1R,3S,5S)-3-Amino-5-methylcyclohexyl)pyridin-3-yl)-5-fluoro-3-((2R,4S)-4-methoxy-2-methylpiperidin-1-yl)quinoline-8-carboxamide]",IC50,Pim-3,≤ 10 nM
same,IC50,Pim-2,≤ 100 nM
same,IC50,Pim-1,≤ 10 nM
"CO[C@@H]1CCN(c2cnc3c(C(=O)Nc4cnccc4[C@@H]4C[C@H](C)C[C@H](N)C4)ccc(F)c3c2)[C@@H](C)C1 [Example 160, N-(4-((1R,3S,5S)-3-Amino-5-methylcyclohexyl)pyridin-3-yl)-5-fluoro-3-((2S,4R)-4-methoxy-2-methylpiperidin-1-yl)quinoline-8-carboxamide]",IC50,Pim-3,≤ 10 nM
same,IC50,Pim-2,≤ 100 nM
same,IC50,Pim-1,≤ 10 nM
"CO[C@@H]1CCN(c2cnc3c(C(=O)Nc4cnccc4[C@@H]4C[C@H](C)C[C@H](N)C4)ccc(F)c3c2)[C@H](C)C1 [Example 161, N-(4-((1R,3S,5S)-3-Amino-5-methylcyclohexyl)pyridin-3-yl)-5-fluoro-3-((2R,4R)-4-methoxy-2-methylpiperidin-1-yl)quinoline-8-carboxamide]",IC50,Pim-3,≤ 10 nM
same,IC50,Pim-2,≤ 100 nM
same,IC50,Pim-1,≤ 10 nM
"CO[C@@H]1CCN(c2cnc3c(C(=O)Nc4cnccc4[C@@H]4C[C@H](C)C[C@H](N)C4)ccc(F)c3c2)C[C@H]1F [Example 162, N-(4-((1R,3S,5S)-3-Amino-5-methylcyclohexyl)pyridin-3-yl)-5-fluoro-3-((3R,4R)-3-fluoro-4-methoxypiperidin-1-yl)quinoline-8-carboxamide]",IC50,Pim-3,≤ 10 nM
same,IC50,Pim-2,≤ 100 nM
same,IC50,Pim-1,≤ 10 nM
COCCO[C@H]1CCN(c2cnc3c(C(=O)Nc4cnccc4[C@@H]4C[C@H](C)C[C@H](N)C4)ccc(F)c3c2)C[C@@H]1F [Example 163],IC50,Pim-3,≤ 10 nM
same,IC50,Pim-2,≤ 100 nM
same,IC50,Pim-1,≤ 10 nM
"C[C@@H]1C[C@H](N)C[C@H](c2ccncc2NC(=O)c2ccc(F)c3cc(N4C[C@@H](O)C[C@H]4C)cnc23)C1 [Example 164, N-(4-((1R,3S,5S)-3-Amino-5-methylcyclohexyl]pyridin-3-yl}-5-fluoro-3-[(2R,4S)-4-hydroxy-2-methylpyrrolidin-1-yl]quinoline-8-carboxamide]",IC50,Pim-3,≤ 10 nM
same,IC50,Pim-2,≤ 100 nM
same,IC50,Pim-1,≤ 10 nM
"C[C@@H]1C[C@H](N)C[C@H](c2ccncc2NC(=O)c2ccc(F)c3cc(N4C[C@@H](O)C[C@@H]4C)cnc23)C1 [Example 165, N-(4-((1R,3S,5S)-3-Amino-5-methylcyclohexyl)pyridin-3-yl)-5-fluoro-3-((2S,4S)-4-hydroxy-2-methylpyrrolidin-1-yl)quinoline-8-carboxamide]",IC50,Pim-3,≤ 10 nM
same,IC50,Pim-2,≤ 100 nM
same,IC50,Pim-1,≤ 10 nM
"C[C@@H]1C[C@H](N)C[C@H](c2ccncc2NC(=O)c2ccc(F)c3cc(N4CC[C@@H]4C)cnc23)C1 [Example 166, N-(4-((1R,3S,5S)-3-Amino-5-methylcyclohexyl)pyridin-3-yl)-5-fluoro-3-((S)-2-methylazetidin-1-yl)quinoline-8-carboxamide]",IC50,Pim-3,≤ 10 nM
same,IC50,Pim-2,≤ 100 nM
same,IC50,Pim-1,≤ 10 nM
"C[C@@H]1C[C@H](N)C[C@H](c2ccncc2NC(=O)c2ccc(F)c3cc(N4CC[C@H]4C)cnc23)C1 [Example 167, N-(4-((1R,3S,5S)-3-Amino-5-methylcyclohexyl)pyridin-3-yl)-5-fluoro-3-((R)-2-methylazetidin-1-yl)quinoline-8-carboxamide]",IC50,Pim-3,≤ 10 nM
same,IC50,Pim-2,≤ 100 nM
same,IC50,Pim-1,≤ 10 nM
"CCOC(=O)N1CCN(c2cnc3c(C(=O)Nc4cnccc4[C@@H]4C[C@H](C)C[C@H](N)C4)ccc(F)c3c2)CC1 [Example 168, Ethyl 4-(8-(4-((1R,3S,5S)-3-amino-5-methylcyclohexyl)pyridin-3-ylcarbamoyl)-5-fluoroquinolin-3-yl)piperazine-1-carboxylate]",IC50,Pim-3,≤ 10 nM
same,IC50,Pim-2,100 to 1000 nM
same,IC50,Pim-1,≤ 10 nM
"C[C@@H]1C[C@H](N)C[C@H](c2ccncc2NC(=O)c2ccc(F)c3cc(N4CCCC[C@H]4C)cnc23)C1 [Example 169, N-(4-((1R,3S,5S)-3-Amino-5-methylcyclohexyl)pyridin-3-yl)-5-fluoro-3-((R)-2-methylpiperidin-1-yl)quinoline-8-carboxamide]",IC50,Pim-3,≤ 10 nM
same,IC50,Pim-2,≤ 100 nM
same,IC50,Pim-1,≤ 10 nM
"C[C@@H]1C[C@H](N)C[C@H](c2ccncc2NC(=O)c2ccc(F)c3cc(N4CCCC[C@@H]4C)cnc23)C1 [Example 170, N-(4-((1R,3S,5S)-3-Amino-5-methylcyclohexyl)pyridin-3-yl)-5-fluoro-3-((S)-2-methylpiperidin-1-yl)quinoline-8-carboxamide]",IC50,Pim-3,10 to 50 nM
same,IC50,Pim-2,100 to 1000 nM
same,IC50,Pim-1,≤ 10 nM
